Measured values published in US20140194484A1, “Method of Treating Cachexia and Sarcopenia” (priority 2012, published 2014).
“Also recorded” adds a separate entry of the source.

How the values were obtained:
[1] = system: patients with cachexia related to late stage colorectal cancer (CRC) or non-small cell lung cancer (NSCLC); format: in vivo, human
Description: An international multicentre, randomised, double blind, placebo controlled clinical trial was conducted with three parallel treatment groups with dose escalation within each group. Male and female patients aged between 25 to 80 years of age with cachexia related to underlying progressive or recurrent late stage colorectal cancer (CRC) or non-small cell lung cancer (NSCLC) were treated for 16 weeks with either S-pindolol or placebo. All patients received standard of care chemotherapy, radiotherapy and supportive care throughout the study at the discretion of their treating physician.
After provision of written informed consent, patients were assessed for eligibility at screening visits occurring from days -8 to -1. All eligible patients with written informed consent were given a set of performance tests [stair climbing power (SCP), hand grip strength (HGS), short performance battery test (SPBT) and the six minute walk test (SMWT)] and receive a 7 day course of placebo (1 tablet two times per day). Patients able to adequately complete the performance tests and with at least 80% compliance after 7 days (tablet count: at least […]) were then randomised on Day 0 to one of three treatment groups. All patients attended for visits on days 7, 14, 21, 28, (each +/−1 day), 56, 84, 112, and 140 (each +/−7 days).
The dose of S-pindolol or placebo was escalated by the investigator in a blinded fashion as described below under the heading “Dose Escalation”. The maximum period of drug titration was 4 weeks and the minimum period was 2 weeks. The patients were required to attend study visits at 1 week intervals after the start of the titration phase until completion of dose escalation. The aim of dose escalation for all subjects is to reach the target dose of 8 tablets per day (4 tablets bd) or the maximum tolerated dose for a particular patient within the first 4 week period. Dose titration was achieved by varying the number of tablets taken from bottle 2. This was done such that patients will be randomised to receive either placebo, 2.5 mg S-pindolol twice daily, 5 mg S-pindolol twice daily, 7.5 mg S-pindolol twice daily, or 10 mg S-pindolol twice daily according to tolerance of the study drug.
• S-pindolol or placebo was administered over a 16 week period. The treatment regimens for the study are summarised below. • At regular monitoring visits, a study monitor checked that all code-break envelopes remained intact.
• Product was taken orally with food as prescribed two times daily
A SMWT was conducted on days 0, 28, 56, 84 and 112. The SMWT was conducted as described by Paul L Enright (Respiratory Care, August 2003 Vol 48 No 8)^12. A straight, level and even area at least 20 meter long and 2 meters wide was marked out at each investigational site and used for the SMWT for all subjects at each time point. Identical chairs were placed at each end of the 20 meter track.
The SCP test was conducted on days 0, 28, 56, 84 and 112. The SCP test was modified from that described by Bean et al (Arch Phys Med Rehabil Vol 88, May 2007) to account for the different stairway configurations at the investigational sites.
A HGS test was conducted on days 0, 28, 56, 84 and 112. The HGS test was modified from that described by Bassey (1990; NIH, 1990). A standard handgrip dynamometer (provided by Sponsor) that can be adjusted for hand size was used at all sites. Both hands were alternately measured in triplicate, followed by a fourth attempt on the dominant hand only. After an explanation the subject squeezed the handle as forcefully as possible for a few seconds and then released. Subjects were encouraged verbally using a standard script and the best score (in kilograms) of the dominant hand recorded in the CRF.
DEXA was performed at selected DEXA scan centres on days at day -1, 56 and 112.
The maximum period of drug titration was 4 weeks and the minimum period was 2 weeks. […]

[2] = system: pre-clinical models of cancer cachexia; experiment: pre-clinical models of cancer cachexia; format: in vivo
[3] = high dose (10 mg bd), ITT population, DEXA
[4] = compared with other β blockers studied

CC(C)NC[C@H](O)COc1cccc2[nH]ccc12 [S-pindolol]
Six minute walk test change ([1]; 2.5 and 10 mg bd vs placebo): trend towards dose response | Stair climbing power change ([1]; 2.5 and 10 mg bd vs placebo): trend towards dose response | Hand Grip Strength change, efficacy compared to placebo ([1]; high dose (10 mg bd), ITT population): statistically significant | Absolute weight change (primary endpoint), efficacy compared to placebo ([1]; high dose (10 mg bd), ITT population, 16 weeks): statistically significant | Fat mass change, efficacy compared to placebo [1, 3]: statistically significant | Lean mass change, efficacy compared to placebo [1, 3]: statistically significant | survival, difference between arms (FIG. 7) ([1]; low dose, high dose MT-102 and placebo arms): No significant differences in survival | benefit compared to placebo and racemic pindolol (FIG. 4) ([2]; FIG. 4): particularly beneficial | effects on aspects of cancer cachexia [2, 4]: significant effects on all aspects | impact upon survival [2, 4]: greatest impact upon survival | efficacy compared with racemic pindolol ([2]; dose for dose basis, treatment of cachexia): superior efficacy to the racemic parent material; also recorded: better effects than racemic pindolol
